Experimental data as given in patent US7244754B2, “2-methylthiazolidine-2,4-dicarboxylic acid and salts thereof for treatment of neurodegenerative diseases” (priority 2002, dated 2007).

Tests used:
MNRI mice = assay: Apoplexy model: occlusion of the middle cerebral artery in mice, infarction surface by neutral red staining; type: in vivo; conditions: application after or before occlusion, as in examples 3 and 4
Source text: In another animal experiment model (apoplexy model) it could be shown (examples 3 and 4) that 2-MTDC as well as salts of 2-MTDC have a cerebroprotective effect.
The following test series deals with the examination of the neuroprotective effect of 2-MTDC-Na in application of 2-MTDC-Na after the ischemia.
Per test group 13 through 16 MNRI mice were employed. The middle cerebral artery of the mice was occluded according to the method of Welsh (F. A. Welsh, T. Sakamoto, A. E. McKee, R. E. Sims, J. Neurochem. 1987, 49, 846-851). For that purpose the mice are anesthetized with tribromoethanol (600 mg/kg body weight, intraperitoneally). Immediately after the anesthesia a small cavity was drilled into the mice cranium to lay open the middle cerebral artery. The strain as well as both arms of the middle cerebral artery were occluded via electro coagulation. Meanwhile the blood heat of the mice was kept on 37° C.±1° C. by utilizing a heating lamp. Subsequently the mice were kept at a surrounding temperature of 30° C. for another 2 h.
One group of mice was injected intraperitoneally 2-MTDC-Na (200 mg/kg 2-MTDC-Na dissolved in 0.9% NaCl solution) 15 minutes after and another group 60 minutes after the occlusion of the middle cerebral artery. A third group received the vehicle only (0.9% NaCl solution without 2-MTDC-Na).
For the following histologic examination 2 days after the occlusion of the middle cerebral artery the mice were anesthetized again with tribromoethanol and received intraperitoneally applied 0.5 ml of a 1.5% solution of neutral red (toluylene red, Acros Chimica) in addition. The brains were extracted and kept for 24 h in a fixative solution (4% formalin with phosphate buffer at pH 7.4).
The tissue on the surface of the brain which was not colored by neutral red was measured as surface region affected by infarction under utilizing a color analysis system (Kontron, Eching, Germany) (C. Backhauβ, C. Karkoutly, M. Welsh, J. Krieglstein, J. Pharmacol Toxicol Methods, 1992, 27 (2), 27-32).
The execution of the test according to example 3 was repeated whereas 2-MTDC-Na was applied one hour before the occlusion of the middle cerebral artery (MCA-O: occlusion of the middle cerebral artery).

dopaminergic neurons = assay: Intrastriatal sodium malonate lesion in rats; transmitters and metabolites in striatum and substantia nigra by HPLC; type: in vivo, Wistar rats; conditions: for activity of dopaminergic neurons (3-methoxytyramine concentration): lysine salt injected intraperitoneally four to five days before measuring, rats
striatum of rats = conditions: seven days after injecting the malonate; cited from earlier work

In the case of `CC1(C(=O)O)N[C@H](C(=O)O)CS1` (mixture of isomers) [2-MTDC, (2RS,4R)-2-methylthiazolidine-2,4-dicarboxylic acid], the “infarction extent induced by occlusion of the cerebral artery (test series of examples 3 and 4)” value (“infarction extent induced by occlusion” for short) (MNRI mice) is reported as “capable of reducing the infarction extent”.

For `CC1(C(=O)O)NC(C(=O)O)CS1.NCCCCC(N)C(=O)O.NCCCCC(N)C(=O)O` (centres unmarked) [2-MTDC-lys], the “influence on the concentration of dopamine, DOPAC, HVA” value (dopaminergic neurons; 2-MTDC-lys solely (no malonate), 2x0.8 mmol/kg i.p., four days after last application) was “no influence”, the “effect on dopaminergic versus serotonergic neurons (5-HT, 5-HIAA)” value (dopaminergic neurons; chosen dose rate, examination period of four days from last application) was “affects obviously dopaminergic neurons but not serotonergic neurons” and the “activity of dopaminergic neurons (3-methoxytyramine concentration)” value (dopaminergic neurons) was “long persistent activation”. For the same compound, the “activity of dopaminergic neurons (3-methoxytyramine concentration)” value (dopaminergic neurons; listed as lysine salt of 2-MTDC) was “intense activation of the dopaminergic neurons”, the “effect of malonate on the reduction of dopamine and dopamine metabolite concentrations (neuroprotection)” value (dopaminergic neurons; pretreatment 2x0.8 mmol/kg i.p., 2 μmol sodium malonate into left striatum, four days after last application) was “prevents the toxic effect of malonate” and the “neurodegeneration of nerve ends in the striatum and cell bodies in the substantia nigra” value (dopaminergic neurons; treatment before malonate (prophylactic)) was “prevents the neurodegeneration”. For the same compound, the “infarction extent induced by occlusion” value (MNRI mice; listed as lysine salts of 2-MTDC) was “capable of reducing the infarction extent”.

For `C[C@@]1(C(=O)O)N[C@H](C(=O)O)CS1` [(2R,4R)-2-methylthiazolidine-2,4-dicarboxylic acid], the “infarction extent induced by occlusion” value (MNRI mice) was “capable of reducing the infarction extent”.

In the case of `C[C@]1(C(=O)O)N[C@H](C(=O)O)CS1` [(2S,4R)-2-methylthiazolidine-2,4-dicarboxylic acid], the “infarction extent induced by occlusion” value (MNRI mice) is reported as “capable of reducing the infarction extent”.

In the case of `O=C([O-])CC(=O)[O-].[Na+].[Na+]` [malonate, sodium malonate], the “concentration of dopamine in the striatum compared to the contralateral striatum” value (striatum of rats) is listed as 6%.
